Source: patent publication US6063814A, “Phorbol esters as anti-neoplastic and white blood cell elevating agents” (priority 1997, dated 2000)

System: HL-60 cells
Test: TPA + low doses of Ara-C, HL-60 differentiation
Assay type: cell-based, human
Settings: Ara-C alone, low dose 100 ng/ml
Description: (2) TPA+Low Doses of Ara-C:

## Nc1ccn([C@@H]2O[C@H](CO)[C@@H](O)[C@@H]2O)c(=O)n1 [Ara-C, cytarabine, reference compound]
  HL-60 cell differentiation: could induce cell differentiation
